In series [1] the target is T1, recombinant human plasminogen activator inhibitor-1 (PAI-1) (Homo sapiens, UniProt P05121).
T1 construct: purchased Molecular Innovations, Royal Oak, Mich
In words: Primary Screen for the PAI-1 Inhibition (residual tPA activity, chromogenic substrate Spectrozyme-tPA). The settings on record: 140 nM PAI-1, 70 nM tPA, pH 6.6; for inhibition at 25 µM: 25 μM test compound; for inhibition at 100 µM: 100 μM test compound. Type of series: biochemical. The method, then:
Test compounds are dissolved in DMSO at a final concentration of 10 mM, then diluted 101× in physiologic buffer. The inhibitory assay is initiated by the addition of the test compound (1-100 μM final concentration, maximum DMSO concentration of 0.2%) in a pH 6.6 buffer containing 140 nM recombinant human plasminogen activator inhibitor-1 (PAI-1; Molecular Innovations, Royal Oak, Mich.). Following a 1 hour incubation at room temperature, 70 nM of recombinant human tissue plasminogen activator (tPA) is added, and the combination of the test compound, PAI-1 and tPA is incubated for an additional 30 minutes. Following the second incubation, Spectrozyme-tPA (American Diagnostica, Greenwich, Conn.), a chromogenic substrate for tPA, is added and absorbance read at 405 nm at 0 and 60 minutes. Relative PAI-1 inhibition is equal to the residual tPA activity in the presence of the test compound and PAI-1. Control treatments include the complete inhibition of tPA by PAI-1 at the molar ratio employed (2:1), and the absence of any effect of the test compound on tPA alone.

In another series the target is human PAI-1 (Homo sapiens, UniProt P05121). Kind of series: Antibody Assay for Determining IC50 of Inhibition of PAI-1 (active PAI-1 bound to tPA-coated plate, 33B8 antibody). Type of series: binding. The settings on record: test compound incubated with human PAI-1 50 ng/ml, pH 7.5. Here is the method: This assay is based upon the non-SDS dissociable interaction between tPA and active PAI-1. Assay plates are initially coated with human tPA (10 μg/ml). Test compounds of the present invention are dissolved in DMSO at 10 mM, then diluted with physiologic buffer (pH 7.5) to a final concentration of 1-50 μM. Test compounds are incubated with human PAI-1 (50 ng/ml) for 15 minutes at room temperature. The tPA-coated plate is washed with a solution of 0.05% Tween 20 and 0. 1% BSA, then the plate is blocked with a solution of 3% BSA. An aliquot of the substituted biphenyloxy acid/PAI-1 solution is then added to the tPA-coated plate, incubated at room temperature for 1 hour, and washed. Active PAI-1 bound to the plate is assessed by adding an aliquot of a 1:1000 dilution of the 33B8 monoclonal antibody against human PAI-1, and incubating the plate at room temperature for 1 hour (Molecular Innovations, Royal Oak, Mich.). The plate is again washed, and a solution of goat anti-mouse IgG-alkaline phosphatase conjugate is added at a 1:50,000 dilution in goat serum. The plate is incubated 30 minutes at room temperature, washed, and a solution of alkaline phosphatase substrate is added. The plate is incubated 45 minutes at room temperature, and color development is determined at OD405nm. The quantitation of active PAI-1 bound to tPA at varying concentrations of the test compound is used-to determine the IC50. Results are analyzed using a logarithmic best-fit equation. The assay sensitivity is 5 ng/ml of human PAI-1 as determined from a standard curve ranging from 0-100 ng/ml.

pIC50: −log10 of the molar value.

T1 sequence (P05121 24-402): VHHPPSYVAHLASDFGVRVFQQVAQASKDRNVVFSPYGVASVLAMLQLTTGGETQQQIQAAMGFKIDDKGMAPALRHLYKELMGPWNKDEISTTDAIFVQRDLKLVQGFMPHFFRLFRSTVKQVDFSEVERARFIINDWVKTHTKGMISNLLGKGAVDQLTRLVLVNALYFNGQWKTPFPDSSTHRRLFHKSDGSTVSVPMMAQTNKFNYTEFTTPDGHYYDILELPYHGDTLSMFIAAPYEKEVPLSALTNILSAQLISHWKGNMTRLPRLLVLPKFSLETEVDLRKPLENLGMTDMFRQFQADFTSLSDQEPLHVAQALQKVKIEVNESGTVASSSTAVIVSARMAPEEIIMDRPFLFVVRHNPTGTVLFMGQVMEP
human PAI-1, sequence (P05121 24-402): as above

Usually inhibition stands for the relative decrease from the control value, in per cent. In general, pIC50 refers to the IC50 on a negative log10 scale, so that one unit is a factor of ten. Higher therefore signals a low IC50. The melting point is the temperature of the solid-liquid transition. As to `CCCc1c(C(=O)NCc2ccc(-c3ccc(OCC(=O)O)c(Br)c3)cc2)cnn1-c1ccccc1` [Compound 3, {[3-bromo-4′-({[(1-phenyl-5-propyl-1H-pyrazol-4-yl)carbonyl]amino}methyl)[1,1′-biphenyl]-4-yl]oxy}acetic acid], the melting point was 204 to 206 °C. Also, in series [1], the inhibition at 25 µM was determined as 47% and the inhibition at 100 µM came to 88%. The pIC50 against human PAI-1 is 4.43.
As for `CCCc1c(C(=O)NCc2ccc(-c3ccc(OCC(=O)O)cc3)cc2)cnn1-c1ccccc1` [Compound 2, ({4′-[({[1-phenyl-5-propyl-1H-pyrazol-4-yl]carbonyl}amino)methyl][1,1′-biphenyl]-4-yl}oxy)acetic acid], the melting point lay within 190 to 192 °C. Moreover, in series [1], the inhibition at 25 µM is 2% and the inhibition at 100 µM came to 66%.
In the same order, the values of `CCCCc1oc2ccccc2c1C(=O)Nc1ccc(-c2ccc(OCC(=O)O)cc2)cc1` [Compound 13, [(4′-{[(2-butyl-1-benzofuran-3-yl)carbonyl]amino}[1,1′-biphenyl]-4-yl)oxy]acetic acid] are 225 to 227 °C, 25% and 85%.
Regarding `CCCCc1oc2ccccc2c1C(=O)N(C)Cc1ccc(-c2ccc(OCC(=O)O)c(Br)c2)cc1` [Compound 7, [(3-bromo-4′-{[[(2-butyl-1-benzofuran-3-yl)carbonyl](methyl)amino]methyl}-1,1′-biphenyl-4-yl)oxy]acetic acid], the melting point was 72 to 78 °C. Besides, in series [1], the inhibition at 25 µM is 64% and the inhibition at 100 µM worked out at 100%. This molecule also had a pIC50 against human PAI-1 of 4.73.
On to `CCCCc1oc2ccccc2c1C(=O)N(C)Cc1ccc(-c2ccc(OC(Cc3ccccc3)C(=O)O)c(Br)c2)cc1` (stereo not shown) [Compound 8, 2-[(3-bromo-4′-{[[(2-butyl-1-benzofuran-3-yl)carbonyl](methyl)amino]methyl}-1,1′-biphenyl-4-yl)oxy]-3-phenylpropanoic acid], for which the melting point lay in the range of 79 to 86 °C. Moreover, in series [1], the inhibition at 25 µM came out at 55% and the inhibition at 100 µM came out at 96%. For the same molecule, on human PAI-1, the pIC50 is 4.70.
Take `CCCCc1oc2ccccc2c1C(=O)N(C)Cc1ccc(-c2ccc(OCc3nnn[nH]3)c(Br)c2)cc1` [Compound 6, N-{[3′-bromo-4′-(1H-tetraazol-5-ylmethoxy)-1,1′-biphenyl-4-yl]methyl}-2-butyl-N-methyl-1-benzofuran-3-carboxamide]: in series [1], the inhibition at 25 µM was 42% and the inhibition at 100 µM came out at 94%. For the same molecule, the pIC50 at human PAI-1 was 4.96.
As for `CN(Cc1ccc(-c2ccc(OCc3nnn[nH]3)c(Br)c2)cc1)C(=O)c1cn(C)c2ccccc12` [Compound 9, N-{[3′-bromo-4′-(1H-tetraazol-5-ylmethoxy)-1,1′-biphenyl-4-yl]methyl}-N,1-dimethyl-1H-indole-3-carboxamide], the melting point was found to be 239 °C. Further, in series [1], the inhibition at 25 µM came to 41% and the inhibition at 100 µM is 81%. On human PAI-1, the pIC50 was 4.33.
`CN(Cc1ccc(-c2ccc(OCc3nnn[nH]3)c(Br)c2)cc1)C(=O)c1cn(Cc2ccccc2)c2ccccc12` [Compound 10, 1-Benzyl-N-{[3′-bromo-4′-(1H-tetraazol-5-ylmethoxy)-1,1′-biphenyl-4-yl]methyl}-N-methyl-1H-indole-3-carboxamide]: in series [1], the inhibition at 25 µM was determined as 45% and the inhibition at 100 µM was 76%. Besides, the negative logarithm of the IC50 (pIC50) on human PAI-1 was 4.52.
With `CCCCc1oc2ccccc2c1C(=O)NCc1ccc(-c2ccc(OCC(=O)O)c(Br)c2)cc1` [Compound 4, {[3-bromo-4′-({[(2-butyl-1-benzofuran-3-yl)carbonyl]amino}methyl)[1,1′-biphenyl]-4-yl]oxy}acetic acid], the melting point was 175 to 190 °C. Moreover, in series [1], the inhibition at 25 µM turned out to be 44% and the inhibition at 100 µM is 82%.
In the same order, the values of `CCCCc1oc2ccccc2c1C(=O)Nc1ccc(-c2ccc(OCc3nnn[nH]3)cc2)cc1` [Compound 14, 2-Butyl-N-[4′-(1H-tetraazol-5-ylmethoxy)[1,1′-biphenyl]-4-yl]-1-benzofuran-3-carboxamide] are 210 to 212 °C, 29% and 62%.

(Values after patent US7534894B2, “Biphenyloxy-acids” (Wyeth, priority 2003, dated 2009).)
